Source: US20060003948A1, “Compositions that include a triterpene and a carrier” (priority 2004, published 2006)

Tests used:
Epidermophyton = experiment: Agar Dilution Method 1, Epidermophyton; assay type: cell-based; parameters: key: +++ = Maximum Fungal Growth; ++ = Moderate Fungal Growth; + = Minimum Fungal Growth; +/− = Very little Fungal Growth; − = No Fungal Growth
Protocol: (§1) Sabourand Dextrose Agar was prepared according the manufacturers instructions and 5 ml was dispensed in 100 X 25 mm tubes and autoclaved for 121° C. for 15 minutes. To each tube containing 5 ml of liquid agar at 45° C., different concentrations of test antifungal compound in DMSO was added, subsequently each was solidified in […], and inoculated with fungal cultures. After incubation for 10-12 days at 25° C. to 28° C., the growth of the fungus was recorded every second day. The Minimum Inhibitory Concentration (MIC) was determined by the tube containing the lowest concentration of test compound which inhibited fungal growth. See, Table 1.

M. audouinii = experiment: Agar Dilution Method 2, M. audouinii; assay type: cell-based; details: 12th day of inoculation
Protocol: (§2) Sabourand Dextrose Agar was prepared according the manufacturers instructions and 5 ml was dispensed in 100×25 mm tubes and autoclaved for 121° C. for 15 minutes. To each tube containing 5 ml of liquid agar at 45° C., 4 mg/ml of test antifungal compound was added, subsequently each was solidified in […], and inoculated with fungal cultures. After incubation for 10-12 days at 25° C. to 28° C., the growth of the fungus was recorded every second day.

M. canis = experiment: Agar Dilution Method 2, M. canis; assay type: cell-based; details: 12th day of inoculation
Protocol: as §2

Pityrosporum ovale [1] = experiment: Agar Dilution Method 1, Pityrosporum ovale; assay type: cell-based; parameters: key: +++ = Maximum Fungal Growth; ++ = Moderate Fungal Growth; + = Minimum Fungal Growth; +/− = Very little Fungal Growth; − = No Fungal Growth
Protocol: as §1

Microsporum canis = experiment: Agar Dilution Method 1, Microsporum canis; assay type: cell-based; parameters: key: +++ = Maximum Fungal Growth; ++ = Moderate Fungal Growth; + = Minimum Fungal Growth; +/− = Very little Fungal Growth; − = No Fungal Growth
Protocol: as §1

T. tonsurans = experiment: Agar Dilution Method 2, T. tonsurans; assay type: cell-based; details: 12th day of inoculation
Protocol: as §2

Pityrosporum ovale [2] = experiment: Anti-Fungal Activity Against Pityrosporum ovale; assay type: cell-based; details: 4 mg/ml of test compound; 37° C. for 18 to 24 hours
Protocol: Betulin and its derivatives have low solubility in water, accordingly the stock solution of the test compounds were prepared in DMSO. The stock solutions for griseofulvin and nystatin were prepared in DMSO at a concentration of 10,000 μg/ml. The yeast Pityrosporum ovale (ATCC Rockville, Md.) was grown in Pityrosporum medium (ATCC Rockville, Md.) at 37° C. for 2-3 days. 5 ml of the medium was dispensed in 100×25 mm tubes and autoclaved at 121° C. for 15 minutes. To each tube at 45° C., 4 mg/ml of test compound was added and solidified in […], subsequently, each was inoculated with P. ovale and incubated at 37° C. for 18 to 24 hours.

[3] = cited from earlier work

Row | Compound | Fungal Growth Epidermophyton (Epidermophyton; 12.5 μg/ml in DMSO) | Fungal Growth Epidermophyton (Epidermophyton; 25 μg/ml in DMSO) | Fungal Growth Epidermophyton (Epidermophyton; 50 μg/ml in DMSO) | Fungal Growth Epidermophyton (Epidermophyton; 100 μg/ml in DMSO) | Results using the Agar Dilution Method 2 in concentration, M. audouinii (M. audouinii) | Results using the Agar Dilution Method 2 in concentration, M. canis (M. canis) | Fungal Growth Pityrosporum ovale (Pityrosporum ovale [1]; 12.5 μg/ml in DMSO) | Fungal Growth Pityrosporum ovale (Pityrosporum ovale [1]; 25 μg/ml in DMSO) | Fungal Growth Pityrosporum ovale (Pityrosporum ovale [1]; 50 μg/ml in DMSO) | Fungal Growth Pityrosporum ovale (Pityrosporum ovale [1]; 100 μg/ml in DMSO) | Fungal Growth Microsporum canis (Microsporum canis; 12.5 μg/ml in DMSO) | Fungal Growth Microsporum canis (Microsporum canis; 25 μg/ml in DMSO) | Fungal Growth Microsporum canis (Microsporum canis; 50 μg/ml in DMSO) | Fungal Growth Microsporum canis (Microsporum canis; 100 μg/ml in DMSO) | Results using the Agar Dilution Method 2 in concentration, T. tonsurans (T. tonsurans) | growth of P. ovale (Pityrosporum ovale [2]) | also measured
1 | CC1(C)CCC23CCC4(C)C(CCC5C6(C)CCC(OC(=O)CCCC(=O)O)C(C)(C)C6CCC54C)C2C1OC3 (stereo not shown) [Allobetulin 3-glutarate] | ++ | + | + | − | 9 µg/mL | 25 µg/mL | +++ | +++ | ++ | − | +/− | +/− | − | − | 25 µg/mL |  | 
2 | CC1(C)CC[C@]23CC[C@]4(C)[C@H](CC[C@@H]5[C@@]6(C)CC[C@H](O)C(C)(C)[C@@H]6CC[C@]54C)[C@H]2[C@H]1OC3 [Allobetulin] |  |  |  |  |  |  |  |  |  |  |  |  |  |  |  | inhibited the growth | Fungal Growth Epidermophyton (Epidermophyton; 9 μg/ml in DMSO): ++; Fungal Growth Epidermophyton (Epidermophyton; 19 μg/ml in DMSO): +; Fungal Growth Epidermophyton (Epidermophyton; 38 μg/ml in DMSO): +; Fungal Growth Epidermophyton (Epidermophyton; 75 μg/ml in DMSO): −; Fungal Growth Pityrosporum ovale (Pityrosporum ovale [1]; 9 μg/ml in DMSO): +++; Fungal Growth Pityrosporum ovale (Pityrosporum ovale [1]; 19 μg/ml in DMSO): +++; Fungal Growth Pityrosporum ovale (Pityrosporum ovale [1]; 38 μg/ml in DMSO): ++; Fungal Growth Pityrosporum ovale (Pityrosporum ovale [1]; 75 μg/ml in DMSO): −; Fungal Growth Microsporum canis (Microsporum canis; 9 μg/ml in DMSO): +++; Fungal Growth Microsporum canis (Microsporum canis; 19 μg/ml in DMSO): ++; Fungal Growth Microsporum canis (Microsporum canis; 38 μg/ml in DMSO): ++; Fungal Growth Microsporum canis (Microsporum canis; 75 μg/ml in DMSO): −
3 | C=C(C)C1CCC2(COC(=O)c3ccccc3C(=O)O)CCC3(C)C(CCC4C5(C)CCC(O)C(C)(C)C5CCC43C)C12 (stereo not shown) [Betulin 28-phthalate] | +++ | ++ | + | − | 25 µg/mL | 50 µg/mL | +++ | +++ | ++ | − | ++ | + | − | − |  |  | 
4 | C=C(C)[C@@H]1CC[C@]2(CO)CC[C@]3(C)[C@H](CC[C@@H]4[C@@]5(C)CC[C@H](O)C(C)(C)[C@@H]5CC[C@]43C)[C@@H]12 [Betulin] | + | + | − | − | 25 µg/mL | 50 µg/mL | +++ | +++ | ++ | +/− | ++ | + | +/− | − |  |  | solubility in water [3]: about 0.15 mg/l
5 | COC1=CC(=O)C[C@@H](C)[C@]12Oc1c(Cl)c(OC)cc(OC)c1C2=O [Griseofulvin, reference compound] |  |  |  |  | <125 µg/mL | 250 µg/mL |  |  |  |  |  |  |  |  | 250 µg/mL |  | Fungal Growth Epidermophyton (Epidermophyton; 125 μg/ml in DMSO): ++; Fungal Growth Epidermophyton (Epidermophyton; 250 μg/ml in DMSO): +; Fungal Growth Epidermophyton (Epidermophyton; 500 μg/ml in DMSO): −; Fungal Growth Epidermophyton (Epidermophyton; 1000 μg/ml in DMSO): −; Fungal Growth Pityrosporum ovale (Pityrosporum ovale [1]; 125 μg/ml in DMSO): +++; Fungal Growth Pityrosporum ovale (Pityrosporum ovale [1]; 250 μg/ml in DMSO): +++; Fungal Growth Pityrosporum ovale (Pityrosporum ovale [1]; 500 μg/ml in DMSO): ++; Fungal Growth Pityrosporum ovale (Pityrosporum ovale [1]; 1000 μg/ml in DMSO): −; Fungal Growth Microsporum canis (Microsporum canis; 125 μg/ml in DMSO): +/−; Fungal Growth Microsporum canis (Microsporum canis; 250 μg/ml in DMSO): +/−; Fungal Growth Microsporum canis (Microsporum canis; 500 μg/ml in DMSO): −; Fungal Growth Microsporum canis (Microsporum canis; 1000 μg/ml in DMSO): −
6 | C[C@@H]1[C@H](O)[C@@H](C)/C=C/C=C/CC/C=C/C=C/C=C/C=C/C(O[C@H]2O[C@H](C)[C@@H](O)[C@H](N)[C@@H]2O)CC2O[C@](O)(CC(O)C(O)CCC(O)CC(O)CC(O)CC(=O)O[C@H]1C)CC(O)C2C(=O)O (stereo partly shown) [Nystatin, reference compound] |  |  |  |  | <125 µg/mL | 250 µg/mL |  |  |  |  |  |  |  |  | 250 µg/mL | inhibited | Fungal Growth Epidermophyton (Epidermophyton; 125 μg/ml in DMSO): +/−; Fungal Growth Epidermophyton (Epidermophyton; 250 μg/ml in DMSO): −; Fungal Growth Epidermophyton (Epidermophyton; 500 μg/ml in DMSO): −; Fungal Growth Epidermophyton (Epidermophyton; 1000 μg/ml in DMSO): −; Fungal Growth Pityrosporum ovale (Pityrosporum ovale [1]; 125 μg/ml in DMSO): +; Fungal Growth Pityrosporum ovale (Pityrosporum ovale [1]; 250 μg/ml in DMSO): +/−; Fungal Growth Pityrosporum ovale (Pityrosporum ovale [1]; 500 μg/ml in DMSO): −; Fungal Growth Pityrosporum ovale (Pityrosporum ovale [1]; 1000 μg/ml in DMSO): −; Fungal Growth Microsporum canis (Microsporum canis; 125 μg/ml in DMSO): +; Fungal Growth Microsporum canis (Microsporum canis; 250 μg/ml in DMSO): +/−; Fungal Growth Microsporum canis (Microsporum canis; 500 μg/ml in DMSO): −; Fungal Growth Microsporum canis (Microsporum canis; 1000 μg/ml in DMSO): −
7 | C=C(C)[C@@H]1CC[C@]2(COC(=O)CCCC(=O)O)CC[C@]3(C)[C@H](CC[C@@H]4[C@@]5(C)CC[C@H](OC(=O)CCCC(=O)O)C(C)(C)[C@@H]5CC[C@]43C)[C@@H]12 [betulin 3,28-diglutarate] |  |  |  |  |  |  |  |  |  |  |  |  |  |  |  | inhibited the growth | 
8 | C=C(C)C1CCC2(COC(=O)CCCC(=O)O)CCC3(C)C(CCC4C5(C)CCC(O)C(C)(C)C5CCC43C)C12 (stereo not shown) [betulin 28-glutarate] |  |  |  |  |  |  |  |  |  |  |  |  |  |  |  | inhibited the growth | 
9 | allobetulin L-valine ester |  |  |  |  |  |  |  |  |  |  |  |  |  |  |  | inhibited the growth | 
